Read-outs that look alike come from different tables or passages of the source.
Tests used:
[1] = tested on: HIF2α-regulated expression of the endogenous target gene hEGLN3 in 786-O cells; assay: Cellular iScript assay for HIF2α (quantitative RT-PCR of hEGLN3); format: cell-based, human; conditions: Homo sapiens, 786-0, 48 hours incubation
Summary of the method: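 786-O cells were exposed to eleven 2-fold compound dilutions for 48 h at 37° C. Lysates underwent one-step TaqMan qRT-PCR for hEGLN3 with beta-actin as reference; 2^(−ΔΔCt) versus DMSO, as % of control, was fit with a four-parameter model to give IC50.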

[2] = target: T1, HIF2α PAS-B domain (236-350, biotinylated on the N-terminus) (Homo sapiens (Human), UniProt Q99814); assay: biochemical
Protocol: (§1) The assay buffer contained 50 mM Tris-HCl pH7 (Sigma), 20 mM NaCl (Fluka), 0.02% BSA (Sigma), 0.005% Triton X-100 (Pierce) and 1 mM DTT (Fluka). After a 30 min incubation period, 5 μL Streptavidin PVT SPA Beads (Perkin Elmer) at 1.2 mg/mL, diluted in the buffer, were added.

[3] = target: T1, HIF2α PAS-B domain (236-350, biotinylated on the N-terminus)
Protocol: as §1

[4] = tested on: HIF2α-dependent transcription in 786-O-HRE-Luc cells; assay: In vitro cellular hypoxia response element (HRE) reporter gene assay (RGA) for HIF2α; format: cell-based, human; conditions: Homo sapiens, 24 hours incubation
Summary of the method: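 Renal carcinoma cells carrying a 4×HRE-driven PEST-destabilised firefly luciferase were treated a day after seeding with eleven 2-fold compound dilutions (0.1% DMSO) for 24 h at 37° C. BrightGlo luminescence, background-subtracted and expressed as % of DMSO control, was fitted four-parametrically for IC50.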

T1 sequence (Q99814 236-350): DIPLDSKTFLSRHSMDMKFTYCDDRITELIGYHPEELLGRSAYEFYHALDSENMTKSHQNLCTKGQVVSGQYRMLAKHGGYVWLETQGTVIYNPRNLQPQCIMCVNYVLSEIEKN

Row | SMILES | IC50 [1] | IC50 [2] | IC50 [3] | IC50 [4]
1 | FC(F)OC1=CC(C(F)(F)F)=CN2CC3(CCCc4cnccc43)N=C12 (racemic) [Example 93, rac-8-(difluoromethoxy)-6-(trifluoromethyl)-7′,8′-dihydro-3H,6′H-spiro[imidazo[1,2-a]pyridine-2,5′-isoquinoline]] | 178 nM | 12 nM | – | –
2 | FC(F)OC1=CC(C(F)(F)F)=CN2C[C@]3(CCOc4cc(C(F)(F)F)ccc43)N=C12 [(R)-8′-(difluoromethoxy)-6′,7-bis(trifluoromethyl)-3′H-spiro[chroman-4,2′-imidazo[1,2-a]pyridine]] | – | > 10000 nM | – | –
3 | FC(F)OC1=CC(C(F)(F)F)=CN2C[C@@]3(CCCc4cc(C(F)(F)F)ccc43)N=C12 [Example 86, (S)-8-(difluoromethoxy)-6,6′-bis(trifluoromethyl)-3′,4′-dihydro-2′H,3H-spiro[imidazo[1,2-a]pyridine-2,1′-naphthalene]] | 64 nM | – | 13 nM | 179 nM
4 | FC(F)OC1=CC(C(F)(F)F)=CN2C[C@@]3(CCCc4c(Cl)cccc43)N=C12 [Example 88, (S)-5′-chloro-8-(difluoromethoxy)-6-(trifluoromethyl)-3′,4′-dihydro-2′H,3H-spiro[imidazo[1,2-a]pyridine-2,1′-naphthalene]] | 32 nM | – | ≤ 4 nM | 142 nM
5 | Fc1c(Br)ccc2c1CCC[C@@]21CN2C=C(Cl)C=C(OC(F)F)C2=N1 [Example 89, (S)-6′-bromo-6-chloro-8-(difluoromethoxy)-5′-fluoro-3′,4′-dihydro-2′H,3H-spiro[imidazo[1,2-a]pyridine-2,1′-naphthalene]] | 34 nM | – | ≤ 7 nM | 220 nM
6 | N#CC1=CN2C[C@@]3(CCCc4c3ccc(F)c4F)N=C2C(OC(F)F)=C1 [Example 91, (S)-8-(difluoromethoxy)-5′,6′-difluoro-3′,4′-dihydro-2′H,3H-spiro[imidazo[1,2-a]pyridine-2,1′-naphthalene]-6-carbonitrile] | 30 nM | – | 5 nM | 262 nM
7 | N#CC1=CN2C[C@@]3(CCC(F)(F)c4c3ccc(Br)c4F)N=C2C(OC(F)F)=C1 [Example 92, (S)-6′-bromo-8-(difluoromethoxy)-4′,4′,5′-trifluoro-3′,4′-dihydro-2′H,3H-spiro[imidazo[1,2-a]pyridine-2,1′-naphthalene]-6-carbonitrile] | 153 nM | – | 29 nM | 626 nM
8 | N#CC1=CN2C[C@@]3(CCCc4c3ccnc4Cl)N=C2C(OC(F)F)=C1 [Example 94, (S)-1′-chloro-8-(difluoromethoxy)-7′,8′-dihydro-3H,6′H-spiro[imidazo[1,2-a]pyridine-2,5′-isoquinoline]-6-carbonitrile] | 197 nM | – | 33 nM | 2260 nM
9 | FCOC1=CC(C(F)(F)F)=CN2C[C@@]3(CCOc4c(Cl)cccc43)N=C12 [Example 95, (S)-8-chloro-8′-(fluoromethoxy)-6′-(trifluoromethyl)-3′H-spiro[chromane-4,2′-imidazo[1,2-a]pyridine]] | 181 nM | – | 23 nM | 271 nM
10 | N#Cc1ccc2c(c1Cl)OCC[C@@]21CN2C=C(C(F)(F)F)C=C(OC(F)F)C2=N1 [Example 96, (S)-8-chloro-8′-(difluoromethoxy)-6′-(trifluoromethyl)-3′H-spiro[chromane-4,2′-imidazo[1,2-a]pyridine]-7-carbonitrile] | 199 nM | – | 32 nM | 518 nM
11 | Fc1c(Cl)ccc2c1OC[C@H](F)[C@@]21CN2C=C(C(F)(F)F)C=C(OC(F)F)C2=N1 [Example 97, (3R,4S)-7-chloro-8′-(difluoromethoxy)-3,8-difluoro-6′-(trifluoromethyl)-3′H-spiro[chromane-4,2′-imidazo[1,2-a]pyridine]] | 57 nM | – | 11 nM | 193 nM
12 | Fc1ccc2c(c1F)OC[C@H](F)[C@@]21CN2C=C(C(F)(F)F)C=C(OC(F)F)C2=N1 [Example 98, (3R,4S)-8′-(difluoromethoxy)-3,7,8-trifluoro-6′-(trifluoromethyl)-3′H-spiro[chromane-4,2′-imidazo[1,2-a]pyridine]] | 104 nM | – | 17 nM | 120 nM
13 | CSc1ccc2c(c1F)OCC[C@@]21CN2C=C(C(F)(F)F)C=C(OC(F)F)C2=N1 [Example 99, (S)-8′-(difluoromethoxy)-8-fluoro-7-(methylthio)-6′-(trifluoromethyl)-3′H-spiro[chromane-4,2′-imidazo[1,2-a]pyridine]] | 71 nM | – | 10 nM | 286 nM
14 | FC(F)OC1=CC(C(F)(F)F)=CN2C[C@@]3(CCOc4c3ccc(Br)c4Cl)N=C12 [Example 100, (S)-7-bromo-8-chloro-8′-(difluoromethoxy)-6′-(trifluoromethyl)-3′H-spiro[chromane-4,2′-imidazo[1,2-a]pyridine]] | 63 nM | – | 4 nM | 106 nM
15 | FC(F)OC1=CC(C(F)(F)F)=CN2C[C@@]3(CCOc4c3ccc(Br)c4Br)N=C12 [Example 102, (S)-7,8-dibromo-8′-(difluoromethoxy)-6′-(trifluoromethyl)-3′ H-spiro[chromane-4,2′-imidazo[1,2-a]pyridine]] | 48 nM | – | 11 nM | 66 nM
16 | COc1ccc2c(c1F)OCC[C@@]21CN2C=C(C(F)(F)F)C=C(OC(F)F)C2=N1 [Example 103, (S)-8′-(difluoromethoxy)-8-fluoro-7-methoxy-6′-(trifluoromethyl)-3′H-spiro[chromane-4,2′-imidazo[1,2-a]pyridine]] | 109 nM | – | 42 nM | 417 nM
17 | FC(F)OC1=CC(C(F)(F)F)=CN2C[C@@]3(CCOc4c(C(F)(F)F)cccc43)N=C12 [Example 104, (S)-8′-(difluoromethoxy)-6′,8-bis(trifluoromethyl)-3′H-spiro[chromane-4,2′-imidazo[1,2-a]pyridine]] | 118 nM | – | ≤ 5 nM | 624 nM
18 | Fc1c(OC(F)(F)F)ccc2c1OCC[C@@]21CN2C=C(C(F)(F)F)C=C(OC(F)F)C2=N1 [Example 105, (S)-8′-(difluoromethoxy)-8-fluoro-7-(trifluoromethoxy)-6′-(trifluoromethyl)-3′H-spiro[chromane-4,2′-imidazo[1,2-a]pyridine]] | 183 nM | – | 21 nM | 248 nM
19 | Fc1c(SC(F)F)ccc2c1OCC[C@@]21CN2C=C(C(F)(F)F)C=C(OC(F)F)C2=N1 [Example 106, (S)-8′-(difluoromethoxy)-7-((difluoromethyl)thio)-8-fluoro-6′-(trifluoromethyl)-3′H-spiro[chromane-4,2′-imidazo[1,2-a]pyridine]] | 81 nM | – | 10 nM | 148 nM
20 | FC(F)OC1=CC(C(F)(F)F)=CN2C[C@@]3(CCOc4c(Br)cccc43)N=C12 [Example 107, (S)-8-bromo-8′-(difluoromethoxy)-6′-(trifluoromethyl)-3′H-spiro[chromane-4,2′-imidazo[1,2-a]pyridine]] | 189 nM | – | 7 nM | 807 nM
21 | [2H]C1C([2H])([2H])Sc2c(F)cccc2[C@]12CN1C=C(C#N)C=C(OC(F)F)C1=N2 (stereo partly drawn) [Example 109, (2S)-8-(difluoromethoxy)-8′-fluoro-3H-spiro[imidazo[1,2-a]pyridine-2,4′-thiochromane]-6-carbonitrile-2′,2′,3′-d3] | 42 nM | – | 4 nM | 90 nM
22 | N#Cc1ccc2c(c1F)SCC[C@@]21CN2C=C(C(F)(F)F)C=C(OC(F)F)C2=N1 [Example 111, (S)-8-(difluoromethoxy)-8′-fluoro-6-(trifluoromethyl)-3H-spiro[imidazo[1,2-a]pyridine-2,4′-thiochromane]-7′-carbonitrile] | 43 nM | – | 9 nM | 100 nM
23 | N#CC1=CN2C[C@@]3(CCSc4c3ccc(F)c4F)N=C2C(OC(F)F)=C1 [Example 112, (S)-8-(difluoromethoxy)-7′,8′-difluoro-3H-spiro[imidazo[1,2-a]pyridine-2,4′-thiochromane]-6-carbonitrile] | 41 nM | – | 7 nM | 116 nM
24 | FCOC1=CC(C(F)(F)F)=CN2C[C@@]3(CCSc4c3cnc(C(F)(F)F)c4F)N=C12 [Example 114, (S)-8′-fluoro-8-(fluoromethoxy)-6,7′-bis(trifluoromethyl)-2′,3′-dihydro-3H-spiro[imidazo[1,2-a]pyridine-2,4′-thiopyrano[3,2-c]pyridine]] | 84 nM | – | 42 nM | 356 nM
25 | Fc1ccc2c(c1F)OCCC[C@@]21CN2C=C(C(F)(F)F)C=C(OC(F)F)C2=N1 [Example 117, (S)-8′-(difluoromethoxy)-8,9-difluoro-6′-(trifluoromethyl)-3,4-dihydro-2H,3′H-spiro[benzo[b]oxepine-5,2′-imidazo[1,2-a]pyridine]] | 24 nM | – | ≤ 4 nM | 281 nM
26 | Fc1c(Cl)ccc2c1COCC[C@@]21CN2C=C(C(F)(F)F)C=C(OC(F)F)C2=N1 [Example 119, (S)-8-chloro-8′-(difluoromethoxy)-9-fluoro-6′-(trifluoromethyl)-3,4-dihydro-1H,3′H-spiro[benzo[c]oxepine-5,2′-imidazo[1,2-a]pyridine]] | 97 nM | – | 19 nM | 292 nM
